The values below come from ChEMBL document CHEMBL5380859, “Bioactivity-Driven Synthesis of the Marine Natural Product Naamidine J and Its Derivatives as Potential Tumor Immunological Agents by Inhibiting Programmed Death-Ligand 1” (J Med Chem, 2023).

Active and inactive are the calls of the source. No cut-off for these calls is given here. A value given as a limit tells only on which side of the number the result lay.

As usually defined, the IC50 is the concentration that gives 50% inhibition. Usually inhibition in vivo stands for the drop in the measured response relative to a control, in per cent.

The subject of data set [1] is RKO. In words: Downregulation of PD-L1 expression level in human RKO cells at 10 uM incubated for 24 hrs by Western blot analysis. The class given is functional, cell-based.
The test system of data set [2] is RKO. In words: Cytotoxicity against human RKO cells assessed as reduction in cell viability after 24 hrs by CCK8 assay. The format is functional, cell-based. (Tetrazolium assays rely on reduction of a dye to a coloured formazan, in cell work by metabolically active cells.)
A short description of data set [3]: Toxicity in C57BL/6 mouse implanted with mouse MC38 cells assessed as change in body weight at 50 mg/kg, ip administered once daily for 16 days and measured every 2 days. The class given is organism-based, MC-38. To be noted: in vivo, 384 h, time 16 day.
Data set [4] addresses Programmed cell death 1 ligand 1 (Homo sapiens) (UniProt Q9NZQ7). Kind of data set: Induction of PD-L1 degradation in human RKO cells at 5 uM in presence of MG132 incubated for 24 hrs by Western blot analysis. The class given is cell-based.
Data set [5] has as its system MC-38. In words: Antitumor activity against mouse MC38 cells implanted in C57BL/6 mouse assessed as downregulation of PD-L1 expression at 50 mg/kg, ip administered once daily and measured after 16 days by immunohistochemistry analysis. To be noted: time 16.0 day. The class given is functional, organism-based.
Data set [6] relates to RKO. Kind of data set: Downregulation of PD-L1 expression level in human RKO cells at 1 to 10 uM by Western blot analysis. The format is functional, cell-based. As to conditions: dose 1-10 µM, time 3-24 hrs, TDE = time-dependent effect. (In western blotting, separated proteins are transferred to a membrane and probed.)
Data set [7] relates to MC-38. Kind of data set: Antitumor activity against mouse MC38 cells implanted in C57BL/6J mouse assessed as increase in number of CD8 positive T cells at 50 mg/kg, ip administered once daily for 16 days by flow cytometry analysis. The class given is functional, organism-based. As to conditions: time 16.0 day. (In general: In flow cytometry, cells or beads pass a laser one at a time.)

For data set [8], the system named is MC-38. Kind of data set: Antitumor activity against mouse MC38 cells implanted in C57BL/6 mouse assessed as inhibition of tumor size at 50 mg/kg, ip administered once daily for 16 days. The class given is functional. To be noted: MC-38, 384 h, time 16 day.
Data set [9] has as its system RKO. Kind of data set: Effect on PD-L1 mRNA level in human RKO cells at 1 to 10 uM by qRT-PCR analysis. The class given is functional, cell-based. As to conditions: dose 1-10 µM.
Data set [10] has as its system MC-38. In words: Antitumor activity against mouse MC38 cells implanted in C57BL/6 mouse assessed as downregulation of FOXP3 expression at 50 mg/kg, ip administered once daily and measured after 16 days by immunohistochemistry analysis. The class given is functional, organism-based. As to conditions: time 16.0 day.
Data set [11] deals with MC-38. In words: Antitumor activity against mouse MC38 cells implanted in C57BL/6J mouse assessed as as increase in ratio of CD8 positive T cells to CD4 positive T cells at 50 mg/kg, ip administered once daily for 16 days by flow cytometry analysis. The format is functional, organism-based. To be noted: time 16.0 day.
Data set [12] deals with MC-38. In words: Antitumor activity against mouse MC38 cells implanted in C57BL/6 mouse assessed as reduction in tumor weight at 50 mg/kg, ip administered once daily for 16 days and measured for every 2 days. To be noted: time 16.0 day. The class given is functional, organism-based.
In data set [13] the test system is MC-38. Kind of data set: Antitumor activity against mouse MC38 cells implanted in C57BL/6 mouse assessed as upregulation of CD3 expression at 50 mg/kg, ip administered once daily and measured after 16 days by immunohistochemistry analysis. The class given is functional, organism-based. To be noted: time 16.0 day.
Data set [14] has as its system RKO. In words: Antitumor activity in human RKO cells cocultured with […] assessed as induction of T-cell mediated cell killing at 10 uM incubated for 24 hrs by crystal violet staining method. The format is functional, cell-based.
Data set [15] deals with Programmed cell death 1 ligand 1 (Homo sapiens) (UniProt Q9NZQ7). Kind of data set: Induction of PD-L1 degradation in human RKO cells at 5 uM in presence of 3-MA incubated for 24 hrs by Western blot analysis. The format is cell-based.
Chain of Programmed cell death 1 ligand 1 (Homo sapiens) (Q9NZQ7 whole entry): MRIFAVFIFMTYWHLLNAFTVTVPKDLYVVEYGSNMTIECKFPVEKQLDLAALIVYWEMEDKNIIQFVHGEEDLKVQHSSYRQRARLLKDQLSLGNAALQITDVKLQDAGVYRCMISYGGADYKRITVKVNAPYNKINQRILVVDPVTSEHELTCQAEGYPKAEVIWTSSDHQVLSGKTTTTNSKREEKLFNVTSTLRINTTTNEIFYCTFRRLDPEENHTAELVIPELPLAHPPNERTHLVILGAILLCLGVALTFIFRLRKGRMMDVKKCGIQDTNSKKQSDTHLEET
In data set [16] the test system is MC-38. Kind of data set: Antitumor activity against mouse MC38 cells implanted in C57BL/6 mouse assessed as upregulation of cleaved caspase 3 at 50 mg/kg, ip administered once daily and measured after 16 days by immunohistochemistry analysis. The class given is functional, organism-based. As to conditions: time 16.0 day.
Data set [17] concerns MC-38. Kind of data set: Antitumor activity against mouse MC38 cells implanted in C57BL/6 mouse assessed as reduction in tumor growth at 50 mg/kg, ip administered once daily for 16 days. The class given is functional, organism-based. To be noted: time 16.0 day.
The subject of data set [18] is MC-38. Kind of data set: Antitumor activity against mouse MC38 cells implanted in C57BL/6 mouse assessed as reduction in tumor growth at 25 mg/kg, ip administered once daily for 16 days. The class given is functional, organism-based. To be noted: time 16.0 day.
Data set [19] has as its system RKO. Kind of data set: Downregulation of PD-L1 expression level in human RKO cells assessed as turnover rate at 5 uM incubated for 12 hrs in presence of CHX by immunoblotting analysis. The class given is functional, cell-based.
Data set [20] has as its target Programmed cell death 1 ligand 1 (Homo sapiens) (UniProt Q9NZQ7). In words: Induction of PD-L1 degradation in human RKO cells at 5 uM in presence of CQ incubated for 24 hrs by Western blot analysis. The class given is cell-based.
Data set [21] has as its system RKO. Kind of data set: Downregulation of PD-L1 expression level in human RKO cells incubated for 24 hrs by Western blot analysis. The class given is functional, cell-based. To be noted: dose 1-10 µM.

Consider `COc1ccc(Cc2nc(NC(=O)c3ccc(OC(F)(F)F)cc3)n(C)c2Cc2ccc(OC)c(OC)c2)cc1`, for which, in the data set on RKO [1], the outcome was Active. Also, in the data set with RKO [2], the IC50 worked out at 23.9 µM.
On to `COC(=O)C12CCC(C(=O)Nc3nc(Cc4ccc(OC)cc4)c(Cc4ccc(OC)c(OC)c4)n3C)(CC1)CC2`, for which the half-inhibitory concentration (IC50) in the data set on RKO [2] was 14.6 µM.
Same read-out and setting: then `CCCCC(=O)Nc1nc(Cc2ccc(OC)cc2)c(Cc2ccc(OC)c(OC)c2)n1C`, with over 40 µM; and `COc1ccc(Cc2nc(NC(=O)c3ccc(N)cc3)n(C)c2Cc2ccc(OC)c(OC)c2)cc1`, with 24.9 µM; and `COc1ccc(Cc2nc(NC(=O)c3ccc(NC(=O)OC(C)(C)C)cc3)n(C)c2Cc2ccc(OC)c(OC)c2)cc1`, with 22.4 µM.
On to `COc1ccc(Cc2nc(NC(=O)c3cccc(NC(=O)CN(C)C)c3)n(C)c2Cc2ccc(OC)c(OC)c2)cc1`, for which the result in the data set with RKO [1] was Active. The IC50 in the data set with RKO [2] came out at 5.3 µM.
Consider `COc1ccc(Cc2nc(NC(=O)c3ccccc3)n(C)c2Cc2ccc(OC)c(OC)c2)cc1`, for which the half-inhibitory concentration (IC50) in the data set with RKO [2] is over 40 µM.
Same read-out and setting: then `COc1ccc(Cc2nc(NC(=O)c3cc(OC)cc(OC)c3)n(C)c2Cc2ccc(OC)c(OC)c2)cc1`, with over 40 µM; and `CNc1cccc(C(=O)Nc2nc(Cc3ccc(OC)cc3)c(Cc3ccc(OC)c(OC)c3)n2C)c1`, with over 40 µM.
As to `CNC(=O)Nc1nc(Cc2ccc(OC)cc2)c(Cc2ccc(OC)c(OC)c2)n1C`, the result with RKO [1] was Active. Besides, in the data set with RKO [2], the IC50 stood at 24.2 µM.
In the same order, the values of `COc1ccc(Cc2nc(NC(=O)c3ccccc3O)n(C)c2Cc2ccc(OC)c(OC)c2)cc1` are “Active” and over 40 µM.
Regarding `COc1ccc(Cc2nc(NC(=O)C3CCCCC3)n(C)c2Cc2ccc(OC)c(OC)c2)cc1`, the IC50 with RKO [2] was over 40 µM.
Turning to `COc1ccc(Cc2nc(NC(=O)c3cccc(N(C)C)c3)n(C)c2Cc2ccc(OC)c(OC)c2)cc1`, the IC50 in the data set on RKO [2] is over 40 µM.
Consider `CCCCC(=O)Nc1cccc(C(=O)Nc2nc(Cc3ccc(OC)cc3)c(Cc3ccc(OC)c(OC)c3)n2C)c1`, for which the result with RKO [1] was Active. Moreover, the IC50 in the data set on RKO [2] stood at 5.2 µM.
Regarding `COc1ccc(Cc2nc(NC(=O)C3CC4(C3)CC(F)(F)C4)n(C)c2Cc2ccc(OC)c(OC)c2)cc1`, the IC50 in the data set with RKO [2] was over 40 µM.
As to `COc1ccc(Cc2nc(NC(=O)c3sc(C)nc3C(F)(F)F)n(C)c2Cc2ccc(OC)c(OC)c2)cc1`, in the data set on RKO [1], the outcome was Active. Also, the IC50 with RKO [2] is 30.8 µM.
On to `COc1ccc(Cc2nc(NC(=O)c3cc(Br)ccc3O)n(C)c2Cc2ccc(OC)c(OC)c2)cc1`, for which the IC50 in the data set with RKO [2] was determined as 20.4 µM.
`COc1ccc(Cc2nc(NC(=O)C34C[C@H]5C[C@H](C3)C[C@@H](C4)C5)n(C)c2Cc2ccc(OC)c(OC)c2)cc1`: in the data set on RKO [1], the result was Active. The IC50 in the data set on RKO [2] was 25.7 µM.
Turning to `COc1ccc(Cc2nc(NC(=O)c3ccc(F)cc3)n(C)c2Cc2ccc(OC)c(OC)c2)cc1`, the IC50 in the data set on RKO [2] was over 40 µM.
On to `COc1ccc(Cc2nc(NC(=O)c3ccc(C(C)=O)cc3)n(C)c2Cc2ccc(OC)c(OC)c2)cc1`, for which the half-inhibitory concentration (IC50) with RKO [2] stood at 26.9 µM.
The same measure, in the same setting: then `COc1ccc(Cc2nc(NC(=O)c3cccc(N)c3)n(C)c2Cc2ccc(OC)c(OC)c2)cc1`, with 20.1 µM.
For `COc1ccc(Cc2nc(NC(=O)c3ccco3)n(C)c2Cc2ccc(OC)c(OC)c2)cc1`, in the data set on RKO [1], the result was Active. The IC50 in the data set with RKO [2] came out at 29.5 µM.
`COc1ccc(Cc2nc(NC(=O)c3cccc(NC(C)=O)c3)n(C)c2Cc2ccc(OC)c(OC)c2)cc1`: in the data set with RKO [2], the 50% inhibitory concentration (IC50) was over 40 µM.
Take `COc1ccc(Cc2nc(NC(=O)c3cccc(NC(=O)OC(C)(C)C)c3)n(C)c2Cc2ccc(OC)c(OC)c2)cc1`: the Activity entry is “Non-Toxic” in data set [3], “Tde” with RKO [6] and “Dose-Dependent Effect” with RKO [21]. For the same compound, the result (in data set [4]; with MC-38 [5]; in the data set on MC-38 [7]; in the data set with RKO [1]; in the data set with MC-38 [10]; with MC-38 [11]) was Active. Further, the outcome (with MC-38 [12]; in the data set with MC-38 [13]; in the data set with RKO [14]; with MC-38 [16]; in the data set on MC-38 [17]; in data set [20]) was Active. Also, in the data set on MC-38 [8], the inhibition in vivo at 50 mg/kg is 45%. The outcome (with RKO [9]; in data set [15]; in the data set on MC-38 [18]; in the data set on RKO [19]) was inactive. For the same compound, the IC50 in the data set with RKO [2] worked out at 31.7 µM.
Take `COc1ccc(Cc2nc(NC(=O)C3CCOCC3)n(C)c2Cc2ccc(OC)c(OC)c2)cc1`: the outcome in the data set on RKO [1] was Active. Also, the concentration for half-maximal inhibition (IC50) in the data set on RKO [2] was determined as 33.3 µM.
